The values that follow come from ChEMBL document CHEMBL1137815, “New cadinene sesquiterpenoids from the Formosan soft coral Xenia puerto-galerae” (2002).

The subject of one test is A549. Nature of the test: Cytotoxicity against human A549 cells by MTT method. It is filed as functional. The conditions noted are these: read-out: ED50 (the source's name). (Tetrazolium assays rely on reduction of a dye to a coloured formazan, in cell work by metabolically active cells.)
In the next test the test system is P388. The test can be described thus: Cytotoxicity against mouse P388 cells by MTT method. The class given is functional. Particulars: read-out: ED50 (the source's name).

≈ marks a conversion by molar mass, not a printed value.

For the molecule `C=C(C)[C@H]1[C@@H]2C[C@@H](C)CC[C@H]2C(C)=C[C@H]1O` [XENITORIN A], the EC50 in the test with A549 was determined as 0.79 µg/mL (≈ 3.59 µM).
Take `C=C(C)[C@@H]1C(=O)C=C(C)[C@@H]2CC[C@H](C)C[C@@H]12` [XENITORIN B]: the EC50 in the test with A549 and in the test with P388 was more than 50 µg/mL in each case.
`C=C(C)[C@@H]1C=C[C@](C)(O)[C@@H]2CC[C@H](C)C[C@H]21` [XENITORIN C]: the EC50 in the test on A549 and with P388 was more than 50 µg/mL in each case.
Regarding `C=C(C)[C@@H]1[C@H](O)[C@@H]2O[C@]2(C)[C@@H]2CC[C@H](C)C[C@@H]12` [XENITORIN D], the EC50 in the test with A549 and in the test with P388 was more than 50 µg/mL in each case.
Turning to `C=C(C)[C@@H]1C(=O)C=C(C)[C@]2(O)CC[C@H](C)C[C@@H]12` [XENITORIN E], the EC50 in the test with A549 came to 1.86 µg/mL (≈ 7.94 µM); in the test with P388, 3.69 µg/mL (≈ 15.7 µM).
Taken in the same sequence, the figures for `C=C(C)[C@@H]1C(=O)C=C(C)[C@@]2(O)CC[C@H](C)C[C@@H]12` [XENITORIN F] were more than 50 µg/mL and more than 50 µg/mL.
